Measurements published in ChEMBL document CHEMBL1141197, “Interaction of papain-like cysteine proteases with dipeptide-derived nitriles” (J Med Chem, 2005).
Where a SMILES comes first, the peptide text is derived from it. The star is where a group is joined. Boc = CC(C)(C)OC(=O)*

Key:
Cathepsin K = target: T1, Cathepsin K (Homo sapiens, UniProt P43235); experiment: Inhibitory activity against human cathepsin K using Z-Leu-Arg-NHMec substrate
T1 sequence (P43235 whole entry): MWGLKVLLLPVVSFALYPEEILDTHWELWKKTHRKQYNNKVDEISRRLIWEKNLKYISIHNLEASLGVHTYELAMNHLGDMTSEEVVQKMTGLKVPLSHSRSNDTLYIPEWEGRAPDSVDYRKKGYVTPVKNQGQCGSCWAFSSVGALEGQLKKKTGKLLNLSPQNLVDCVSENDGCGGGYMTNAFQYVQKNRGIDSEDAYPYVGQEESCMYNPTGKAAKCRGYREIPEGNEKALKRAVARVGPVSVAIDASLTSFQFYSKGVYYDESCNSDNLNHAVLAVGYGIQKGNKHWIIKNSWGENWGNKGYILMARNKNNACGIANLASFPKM

Cathepsin S = Cathepsin S (Homo sapiens, UniProt P25774); experiment: Inhibitory activity against human cathepsin S using Z-Val-Val-Arg-NHMec substrate
Cathepsin S, sequence (P25774 whole entry): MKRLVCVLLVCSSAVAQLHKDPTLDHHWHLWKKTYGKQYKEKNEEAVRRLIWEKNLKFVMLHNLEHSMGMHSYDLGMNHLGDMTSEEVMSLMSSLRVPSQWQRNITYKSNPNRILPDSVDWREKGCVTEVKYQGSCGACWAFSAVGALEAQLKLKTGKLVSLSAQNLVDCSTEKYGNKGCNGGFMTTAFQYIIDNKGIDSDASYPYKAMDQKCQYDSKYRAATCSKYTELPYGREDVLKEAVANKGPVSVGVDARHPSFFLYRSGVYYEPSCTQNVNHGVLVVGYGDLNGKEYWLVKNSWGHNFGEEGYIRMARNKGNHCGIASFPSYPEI

Papain = target: T2, Papain (Carica papaya, UniProt P00784); experiment: Inhibitory activity against papain using Z-Phe-Arg-NHNp substrate
T2 sequence (P00784 whole entry): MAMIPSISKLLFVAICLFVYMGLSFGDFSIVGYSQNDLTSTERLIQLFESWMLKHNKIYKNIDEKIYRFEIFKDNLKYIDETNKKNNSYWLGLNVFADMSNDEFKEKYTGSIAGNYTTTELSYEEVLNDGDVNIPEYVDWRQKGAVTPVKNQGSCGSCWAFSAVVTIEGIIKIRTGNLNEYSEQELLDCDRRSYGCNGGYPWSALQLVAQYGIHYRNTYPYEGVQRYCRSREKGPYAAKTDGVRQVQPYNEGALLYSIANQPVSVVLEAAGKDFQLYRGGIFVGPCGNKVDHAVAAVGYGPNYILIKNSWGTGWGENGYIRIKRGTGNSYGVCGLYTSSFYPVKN

Procathepsin L [1] = target: Procathepsin L (Bos taurus, UniProt P25975); experiment: Inhibitory activity against bovine cathepsin L using Z-Phe-Arg-NHMec substrate
Procathepsin L (Bos taurus, UniProt P25975), sequence (P25975 whole entry): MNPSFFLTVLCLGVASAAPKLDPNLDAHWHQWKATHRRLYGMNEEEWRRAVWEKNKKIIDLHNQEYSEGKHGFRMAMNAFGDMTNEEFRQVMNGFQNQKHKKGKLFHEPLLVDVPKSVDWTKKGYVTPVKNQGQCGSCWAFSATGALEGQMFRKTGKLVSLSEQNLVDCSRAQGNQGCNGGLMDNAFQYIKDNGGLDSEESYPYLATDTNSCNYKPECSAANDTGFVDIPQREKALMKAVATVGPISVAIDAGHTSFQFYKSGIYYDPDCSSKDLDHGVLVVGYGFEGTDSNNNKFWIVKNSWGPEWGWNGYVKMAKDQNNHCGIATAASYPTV

Procathepsin L [2] = target: Procathepsin L (Homo sapiens, UniProt P07711); experiment: Inhibitory activity against human cathepsin L using Z-Phe-Arg-NHMec substrate
Procathepsin L (Homo sapiens, UniProt P07711), sequence (P07711 whole entry): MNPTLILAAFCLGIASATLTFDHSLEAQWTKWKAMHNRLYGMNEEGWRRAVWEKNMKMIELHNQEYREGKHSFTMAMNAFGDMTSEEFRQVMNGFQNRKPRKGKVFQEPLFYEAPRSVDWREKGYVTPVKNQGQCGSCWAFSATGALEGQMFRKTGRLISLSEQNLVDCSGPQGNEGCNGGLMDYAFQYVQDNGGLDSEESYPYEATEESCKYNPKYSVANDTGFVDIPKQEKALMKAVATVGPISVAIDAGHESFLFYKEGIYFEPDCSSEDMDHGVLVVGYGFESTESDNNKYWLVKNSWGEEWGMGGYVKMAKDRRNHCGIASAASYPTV

Row | Ki (Cathepsin K) [µM] | Ki (Cathepsin S) [µM] | Ki (Papain) [µM] | Ki (Procathepsin L [1]) [µM] | Ki (Procathepsin L [2]) [µM] | SMILES
1 | 4.1 | 0.62 | 0.26 |  |  | CC(C)(C)OC(=O)N[C@@H](Cc1ccccc1)C(=O)NCC#N
2 | 6.5 | 6.2 | 2 | 2.8 |  | CC(C)[C@H](NC(=O)OC(C)(C)C)C(=O)NCC#N
3 | 4.1 | 2.8 | 1.2 | 14 |  | CC(C)(C)OC(=O)N[C@@H](Cc1ccco1)C(=O)NCC#N
4 | > 100 | > 100 | 537 | > 100 |  | CC(C)(C)OC(=O)N1CCC[C@H]1C(=O)NCC#N
5 | 3.3 | 0.65 | 13 | 47 |  | CC(C)(C)OC(=O)N[C@@H](CC1CC1)C(=O)NCC#N
6 | 5 | 28 | 5.4 | > 100 |  | CC[C@H](NC(=O)OC(C)(C)C)C(=O)NCC#N
7 | 0.074 | 0.025 | 0.015 | 0.022 |  | CC(C)(C)OC(=O)N[C@@H](Cc1ccccc1)C(=O)NCC=O (Boc-Phe-Gly-aldehyde)
8 | 1.5 | 0.077 | 0.062 | 0.23 |  | N#CCNC(=O)[C@H](Cc1ccccc1)NC(=O)c1ccccc1
9 | > 100 | > 100 | > 100 | > 100 |  | CN(CC#N)C(=O)[C@H](Cc1ccccc1)NC(=O)OC(C)(C)C
10 | 6.5 | 0.34 | 0.33 | 0.27 |  | CC(C)(C)OC(=O)N[C@@H](Cc1cccc(Br)c1)C(=O)NCC#N
11 | 16 | 0.44 | 0.016 | 0.34 |  | CC(C)(C)OC(=O)N[C@@H](Cc1ccc(-c2ccccc2)cc1)C(=O)NCC#N
12 | 34 | 0.3 | 7.4 | 0.32 | 0.29 | CC(C)(C)OC(=O)N[C@@H](Cc1csc2ccccc12)C(=O)NCC#N
13 | > 100 | 2.5 | 10 | 25 |  | N#CCNC(=O)CNS(=O)(=O)c1ccc2ccccc2c1
14 | 30 | 0.97 | 0.19 | 0.4 |  | CC(C)(C)OC(=O)N[C@@H](Cc1ccc(O)cc1)C(=O)NCC#N
15 | 1.2 | 0.27 | 0.19 | 1.6 |  | CC(C)(C)OC(=O)N[C@@H](Cc1cccs1)C(=O)NCC#N
16 | 1.1 | 0.9 | 0.75 | 22 |  | CCC[C@H](NC(=O)OC(C)(C)C)C(=O)NCC#N
17 | 8.5 | 1.9 | 12 | 9.4 |  | CC(C)(C)OC(=O)N[C@@H](CCc1ccccc1)C(=O)NCC#N
18 | 0.26 | 0.51 | 0.36 | 0.18 | 0.23 | N#CCNC(=O)[C@H](Cc1ccccc1)NC(=O)OCc1ccccc1
19 | 5.8 | 4.1 | 26 | 4.9 |  | CC[C@@H](C)[C@H](NC(=O)OC(C)(C)C)C(=O)NCC#N
20 | 2.1 | 0.76 | 0.57 | 4.5 |  | CC(C)(C)OC(=O)N[C@@H](Cc1ccsc1)C(=O)NCC#N
21 | > 1000 | > 1000 | 1600 | > 1000 |  | N#CCNC(=O)CNC(=O)OCc1ccccc1
22 | 136 | 292 | 22 | > 100 |  | C[C@H](NC(=O)OC(C)(C)C)C(=O)NCC#N
23 | 83 | 0.083 | 0.021 | 0.12 |  | CC(C)(C)OC(=O)N[C@@H](Cc1ccc2ccccc2c1)C(=O)NCC#N
24 | 26 | 0.27 | 1.2 | 0.43 |  | CC(C)(C)OC(=O)N[C@@H](Cc1cccc(-c2ccccc2)c1)C(=O)NCC#N

Row | Ki (Cathepsin K) [µM] | Ki (Cathepsin S) [µM] | Ki (Papain) [µM] | Ki (Procathepsin L [1]) [µM] | Ki (Procathepsin L [2]) [µM] | SMILES
25 | 0.73 | 0.66 | 0.65 | 19 |  | CSCC[C@H](NC(=O)OC(C)(C)C)C(=O)NCC#N
26 | > 100 | 46 | 41 |  |  | CC(C)(C)OC(=O)N[C@H](Cc1ccccc1)C(=O)NCC#N
27 | 5.3 | 0.044 | 2.2 | 1.1 |  | CC(C)(C)OC(=O)N[C@@H](CC1CCCCC1)C(=O)NCC#N
28 | 3.3 | 0.77 | 0.4 | 0.47 |  | CC(C)(C)OC(=O)N[C@@H](Cc1ccccc1F)C(=O)NCC#N
29 | 13 | 0.59 | 0.27 | 0.64 |  | CC(C)(C)OC(=O)N[C@@H](Cc1ccc(F)cc1)C(=O)NCC#N
30 | 6.3 | 0.86 | 0.5 | 0.7 |  | CC(C)(C)OC(=O)N[C@@H](Cc1cccc(F)c1)C(=O)NCC#N
31 | > 1000 | > 1000 | > 3000 | > 1000 |  | CC(C)(C)OC(=O)NCC(=O)NCC#N
32 | 29 | 0.24 | 7.6 | 0.35 | 0.43 | CC(C)(C)OC(=O)N[C@@H](Cc1c[nH]c2ccccc12)C(=O)NCC#N
33 | 2.1 | 2.1 | 187 | 2.3 |  | CC(=O)CNC(=O)[C@H](Cc1ccccc1)NC(=O)OC(C)(C)C
34 | 28 | 0.19 | 0.029 | 0.63 |  | CC(C)(C)OC(=O)N[C@@H](Cc1ccc(Br)cc1)C(=O)NCC#N
35 | 66 | 1.3 | 28 | 1.7 |  | CC(C)(C)OC(=O)N[C@@H](Cc1cccc2ccccc12)C(=O)NCC#N
36 | > 100 | > 100 | 299 | > 100 |  | CC(C)(C)OC(=O)N[C@@H](Cc1ccccc1-c1ccccc1)C(=O)NCC#N
37 | > 100 | > 50 | 725 | > 100 |  | CC(C)(C)OC(=O)NN(Cc1ccccc1)C(=O)NCC#N
38 | 90 | 1.7 | 83 | 29 |  | CC(C)(C)OC(=O)N[C@H](C(=O)NCC#N)c1ccccc1
39 | 1.27 | 0.55 | 1.57 | 19 |  | CCCC[C@H](NC(=O)OC(C)(C)C)C(=O)NCC#N
40 | > 100 | 2.2 | 11 | 33 |  | CC(C)(C)OC(=O)N[C@@H](COCc1ccccc1)C(=O)NCC#N
41 | > 100 | 15 | 14 | 2.5 |  | CC(C)(C)OC(=O)N[C@@H](Cc1c(F)c(F)c(F)c(F)c1F)C(=O)NCC#N
42 | > 1000 | > 100 | 497 | > 1000 |  | C#CCNC(=O)[C@H](Cc1ccccc1)NC(=O)OC(C)(C)C
43 | 0.035 | 0.13 | 3.1 | 0.75 |  | CC(C)C[C@H](NC(=O)OCc1ccccc1)C(=O)NCC#N
44 | > 1000 | > 100 | 497 | > 1000 |  | C=CCNC(=O)[C@H](Cc1ccccc1)NC(=O)OC(C)(C)C
45 | 0.3 | 0.24 | 0.016 | 0.55 |  | N#CCNC(=O)[C@H](Cc1ccccc1)NC(=O)c1ccc(-c2ccccc2)cc1
46 | 7.5 | 1.4 | 0.38 | 5.8 |  | CC(=O)N[C@@H](Cc1ccccc1)C(=O)NCC#N
47 | 4.2 | 0.61 | 0.46 | 1.1 |  | CC(C)(C)OC(=O)N[C@@H](Cc1ccccc1Br)C(=O)NCC#N
48 | 0.12 | 0.13 | 2 | 1.2 |  | CC(C)C[C@H](NC(=O)OC(C)(C)C)C(=O)NCC#N
